Results taken from patent publication US20090028925A1, “Novel Phosphinic Acid-Containing Thyromimetics” (priority 2005, published 2009).
Like-named read-outs stand apart in the source and are kept apart here.

Key:
plasma cholesterol = test: Cholesterol lowering in hypercholesterolemic rats; format: in vivo; details: for change in vivo at 0.5 mg/kg/day: Rattus norvegicus, po, read-out: % Cholesterol Lowering; for change in vivo at 0.5 mg/kg/day / % Cholesterol Lowering: delivered p.o. (0.5 mg/kg/d), percentage change from pre-dose cholesterol; for cholesterol lowering / efficacy in lowering cholesterol: hypercholesterolemic rats; for cholesterol lowering: 0.5 mg/kg/d orally; for efficacy in lowering cholesterol: another experiment
[1] = target: T1, human thyroid hormone receptors TRα1 (Homo sapiens, UniProt P10827); test: Receptor binding to TRα1 (gel filtration and scintillation proximity assay, labeled T3); details: read-out: Ki TRα
T1 construct: made in house; host or cells: Sf9 insect cells (baculovirus)
T1 sequence (P10827 1-410 isoform P10827-2): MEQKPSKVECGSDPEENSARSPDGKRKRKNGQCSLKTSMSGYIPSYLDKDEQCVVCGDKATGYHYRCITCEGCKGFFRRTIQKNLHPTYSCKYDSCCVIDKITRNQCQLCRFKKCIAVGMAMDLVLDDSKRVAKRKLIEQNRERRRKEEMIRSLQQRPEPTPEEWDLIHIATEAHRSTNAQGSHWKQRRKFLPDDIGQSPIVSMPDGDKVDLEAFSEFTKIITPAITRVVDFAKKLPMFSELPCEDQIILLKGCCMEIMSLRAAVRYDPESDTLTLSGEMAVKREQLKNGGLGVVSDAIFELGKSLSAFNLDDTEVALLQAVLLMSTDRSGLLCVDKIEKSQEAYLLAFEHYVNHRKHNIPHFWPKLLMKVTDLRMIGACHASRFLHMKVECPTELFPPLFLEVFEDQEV
T1 sequence (P19793 1-462 partner): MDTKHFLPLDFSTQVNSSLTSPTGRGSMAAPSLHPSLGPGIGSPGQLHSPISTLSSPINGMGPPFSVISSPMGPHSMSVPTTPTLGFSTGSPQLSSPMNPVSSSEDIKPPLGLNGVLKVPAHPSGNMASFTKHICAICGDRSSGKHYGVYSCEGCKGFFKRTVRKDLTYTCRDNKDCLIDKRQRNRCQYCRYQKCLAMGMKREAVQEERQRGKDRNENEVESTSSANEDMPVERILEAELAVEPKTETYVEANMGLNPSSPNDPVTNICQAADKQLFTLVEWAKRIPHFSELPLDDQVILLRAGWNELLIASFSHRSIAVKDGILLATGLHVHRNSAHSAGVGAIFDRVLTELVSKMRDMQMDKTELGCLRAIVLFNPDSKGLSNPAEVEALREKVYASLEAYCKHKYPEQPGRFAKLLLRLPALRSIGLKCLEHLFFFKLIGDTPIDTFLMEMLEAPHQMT
Method: (§1) Methods: Baculoviruses expressing TRα1, TRβ1 and RXRα were generated using cDNA and other reagents from Invitrogen (Carlsbad, Calif.). To produce TR/RXR heterodimer proteins, the sf9 insect cells were first grown to a density of 1-5×10^5 cells/mL. […] and RXRα baculovirus stocks were added to the cell culture with a ratio of 1 to 1 (multiplicity of infection=10). The cells were harvested three days after the infection.
(§2) Binding of compounds to either the TRα1 or TRβ1 were also performed by means of scintillation proximity assays (SPA). The SPA assay, a common method used for the quantitation of receptor-ligand equilibria, makes use of special beads coated with a scintillant and a capture molecule, copper, which binds to the histidine-tagged α or β receptor.

[2] = target: T2, human thyroid hormone receptors TRβ1 (Homo sapiens, UniProt P10828); test: Receptor binding to TRβ1 (gel filtration and scintillation proximity assay, labeled T3); details: read-out: Ki TRβ
T2 construct: made in house; host or cells: Sf9 insect cells (baculovirus)
T2 sequence (P10828 1-461): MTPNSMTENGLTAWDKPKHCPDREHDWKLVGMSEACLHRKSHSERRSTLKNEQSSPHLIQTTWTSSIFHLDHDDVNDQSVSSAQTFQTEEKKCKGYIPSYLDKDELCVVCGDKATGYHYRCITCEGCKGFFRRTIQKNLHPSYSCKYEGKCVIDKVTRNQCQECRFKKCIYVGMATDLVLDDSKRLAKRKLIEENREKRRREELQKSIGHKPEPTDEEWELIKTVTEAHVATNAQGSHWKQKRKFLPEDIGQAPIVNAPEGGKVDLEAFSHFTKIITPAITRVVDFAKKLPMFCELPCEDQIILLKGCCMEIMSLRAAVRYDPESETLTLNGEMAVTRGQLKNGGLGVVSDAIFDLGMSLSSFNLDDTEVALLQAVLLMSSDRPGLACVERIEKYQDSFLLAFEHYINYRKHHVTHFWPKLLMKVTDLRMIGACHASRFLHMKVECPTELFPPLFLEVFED
T2 sequence (P19793 1-462 partner): T1 sequence (P19793 1-462 partner)
Method: as §1, §2

SMILES	change in vivo at 0.5 mg/kg/day (plasma cholesterol)	Ki ([1]; SPA data)	Ki ([2]; SPA data)	further results
CCOC(=O)[C@H](C)NP(=O)(COc1cc(I)c(Oc2ccc(O)c(C(C)C)c2)c(I)c1)N[C@@H](C)C(=O)OCC [Compound 15-8]	-31.1%			
CC(C)c1cc(Oc2c(Br)cc(CP(=O)(OCOC(=O)C(C)(C)C)OCOC(=O)C(C)(C)C)cc2Br)ccc1O [Compound 12-5, Di-(pivaloyloxymethyl)[3,5-dibromo-4-(4′-hydroxy-3′-iso-propylphenoxy)benzyl]phosphonate]	-32.5%			cholesterol lowering (plasma cholesterol): demonstrated a significant lowering of cholesterol
CCOC(=O)[C@H](C)NP(=O)(Cc1cc(Br)c(Oc2ccc(O)c(C(C)C)c2)c(Br)c1)N[C@@H](C)C(=O)OCC [Compound 15-5, di-N-(L-1-ethoxycarbonylethylamino)[3,5-dibromo-4-(4′-hydroxy-3′-iso-propylphenoxy)benzyl]phosphonamide]	-29.9%			cholesterol lowering (plasma cholesterol): demonstrated a significant lowering of cholesterol
CC(C)c1cc(Oc2c(Br)cc(C[P@@]3(=O)OCC[C@@H](c4cccc(Cl)c4)O3)cc2Br)ccc1O [Compound 13-9, Cis-(S)-2-[3,5-dibromo-4-(4′-hydroxy-3′-iso-propylphenoxy)benzyl]-4-(3-chlorophenyl)-2-oxo2λ^5-[1,3,2]-dioxaphosphonane]	-10.9%			cholesterol lowering (plasma cholesterol): failed to demonstrate cholesterol lowering
CC(C)c1cc(Oc2c(I)cc(OC[P@@]3(=O)OCC[C@@H](c4cccc(Cl)c4)O3)cc2I)ccc1O [Compound 13-10]	-25.8%			
CC(C)c1cc(Cc2c(Cl)cc(OC[P@@]3(=O)OCC[C@@H](c4cccc(Cl)c4)O3)cc2Cl)ccc1O (relative stereo) [Compound 13-11, Cis(S)-2-[(3,5-dichloro-4-(4′-hydroxy-3′-iso-propylbenzyl)phenoxy)methyl]-4-(3-chlorophenyl)-2-oxo-2λ^5-[1,3,2]-dioxaphosphonane]				% Cholesterol Lowering (plasma cholesterol): −24.8%
CCOC(=O)[C@H](C)NP(=O)(COc1cc(C)c(Cc2ccc(O)c(C(C)CC)c2)c(C)c1)N[C@@H](C)C(=O)OCC (stereo partly drawn) [Compound 15-4, di-N-(L-1-ethoxycarbonylethylamino)[3,5-dimethyl-4-(4′-hydroxy-3′-sec-butylbenzyl)phenoxy]methylphosphonamide]	-39.6%			
CC(C)c1cc(Cc2c(Cl)cc(OCP(=O)(OCOC(=O)C(C)(C)C)OCOC(=O)C(C)(C)C)cc2Cl)ccc1O [Compound 12-8, Di(pivaloyloxymethyl)[3,5-dichloro-4-(4′-hydroxy-3′-iso-propylbenzyl)phenoxy]methylphosphonate]	-33.7%			
CC(C)c1cc(Oc2c(Cl)c(F)nc(NCP(=O)(OCOC(=O)C(C)(C)C)OCOC(=O)C(C)(C)C)c2Cl)ccc1O [Compound 12-9]				efficacy in lowering cholesterol (plasma cholesterol): not efficacious
COc1ccc(Oc2c(C)cc(CCP(=O)(O)O)cc2C)cc1C(C)C [Compound 30, 2-[3,5-dimethyl-4-(3′-iso-propyl-4′-methoxyphenoxy)phenyl]ethylphosphonic acid]		> 2 µM	> 2 µM	
Cc1cc(OC[P@]2(=O)OCC[C@@H](c3cccnc3)O2)cc(C)c1Cc1ccc(O)c(C(C)C)c1 [Compound 13-4-trans, 2-[(3,5-dimethyl-4-(4′-hydroxy-3′-iso-propylbenzyl)phenoxy)methyl]-4-(pyrid-3-yl)-2-oxo-2λ^5-[1,3,2]-dioxaphosphonane]		2.13 µM	1.81 µM	
Cc1cc(OCCP(=O)(O)O)cc(C)c1Cc1ccc(O)c(C(C)C)c1 [Compound 26, 2-[3,5-dimethyl-4-(3′-iso-propyl-4′-hydroxybenzyl)phenoxy]ethylphosphonic acid]				Ki [1]: 0.594 µM; Ki [2]: 0.087 µM
Cc1cc(OC[P@@]2(=O)OCC[C@@H](c3cccc(Br)c3)O2)cc(C)c1Cc1ccc(O)c(C(C)C)c1 [cis-13-2]				efficacy in lowering cholesterol (plasma cholesterol): not efficacious
CC(C)c1cc(Oc2c(I)cc(OCP(=O)(OCOC(=O)C(C)(C)C)OCOC(=O)C(C)(C)C)cc2I)ccc1O [Compound 12-7, Di(pivaloyloxymethyl)[3,5-diiodo-4-(4′-hydroxy-3′-iso-propylphenoxy)phenoxy]methylphosphonate]				% Cholesterol Lowering (plasma cholesterol): −39.1%
Cc1cc(NC(=O)P(=O)(O)O)cc(C)c1Oc1ccc(O)c(C(C)C)c1 [Compound 1, N-[3,5-dimethyl-4-(3′-iso-propyl-4′-hydroxyphenoxy)]carbamoylphosphonic acid]				Ki [1]: 0.285 µM; Ki [2]: 0.0361 µM
COc1cc(CCP(=O)(O)O)cc(OC)c1Cc1ccc(O)c(C(C)C)c1 [Compound 24, 2-[3,5-dimethoxy-4-(4′-hydroxy-3′-isopropylbenzyl)phenyl]ethylphosphonic acid]		> 2 µM	> 2 µM	
CCC(C)c1cc(Cc2c(C)cc(OC[P@@]3(=O)OCC[C@@H](c4cccc(Cl)c4)O3)cc2C)ccc1O (stereo partly drawn) [Compound 13-8, Cis-(S)-2-[(3,5-dimethyl-4-(4′-hydroxy-3′-sec-butylbenzyl)phenoxy)methyl]-4-(3-chlorophenyl)-2-oxo-2λ^5-[1,3,2]-dioxaphosphonane]	-26.5%			
Cc1cc(OCP(=O)(O)O)cc(C)c1Cc1ccc(O)c(I)c1 [Compound 34, [3,5-dimethyl-4-(4′-hydroxy-3′-iodobenzyl)phenoxy]methylphosphonic acid]		0.118 µM	0.0065 µM	
COc1cc(OCP(=O)(O)O)cc(OC)c1Cc1ccc(O)c(C(C)C)c1 [Compound 7-2, [3,5-dimethoxy-4-(4′-hydroxy-3′-iso-propylbenzyl)phenoxy]methylphosphonic acid]		> 2 µM		Ki [2]: 0.146 µM
O=P(O)(O)Cc1cc(Cl)c(Oc2ccc(O)c(S(=O)(=O)N[C@@H]3C[C@H]4CC[C@@H]3C4)c2)c(Cl)c1 (relative stereo) [Compound 10, 3,5-dichloro-4-[4′-hydroxy-3′-(N-exo-2-norbornylsulfonamido)phenoxy]benzylphosphonic acid]		> 2 µM	> 2 µM	
Cc1cc(OC[P@@]2(=O)OCC[C@@H](c3cc(Cl)cc(Cl)c3)O2)cc(C)c1Cc1ccc(O)c(C(C)C)c1 [Compound 13-7-cis]		49.6 µM	45.1 µM	
CC(C)c1cc(Oc2c(I)cc(CP(=O)(O)O)cc2I)ccc1O [Compound 5, 3,5-diiodo-4-(4′-hydroxy-3′-iso-propylphenoxy)benzylphosphonic acid]				Ki [1]: 0.00184 µM; Ki [2]: 0.00084 µM
Cc1cc(CC(=O)CP(=O)(O)O)cc(C)c1Oc1ccc(O)c(C(C)C)c1 [Compound 32, 3-[3,5-dimethyl-4-(4′-hydroxy-3′-iso-propylphenoxy)]phenyl-2-oxopropylphosphonic acid]		0.284 µM	0.096 µM	
Cc1cc(Cc2c(C)cc(OCP(=O)(O)O)cc2C)ccc1O [Compound 7-7, [3,5-dimethyl-4-[4′-hydroxy-3′-methylbenzyl]phenoxy]methylphosphonic acid]		0.898 µM	0.09 µM	
CC(C)c1cc(Oc2c(I)cc(CCP(=O)(O)O)cc2I)ccc1O [Compound 4, 2-[3,5-diiodo-4-(4′-hydroxy-3′-iso-propylphenoxy)phenyl]ethylphosphonic acid]		0.0141 µM	0.00099 µM	
